# Assays:
# [1] = Body weight and weight loss rate of Huh7 tumor-bearing mice during administration; assay type: in vivo, BALB/c nude mice; conditions: 25 mg/kg (IP, bid), 50 mg/kg (IP, bid) and 300 mg/kg (PO, bid); within 22 days
# Procedure: (§1) Each group of animals was administrated (intraperitoneal injection (ip) or oral administration (po)) a test substance twice a day (bid) at a fix time per day according to the body weight of the animals. The first dose was administered on the day of grouping ([…]), and continued for 22 days, the body weight of the animals was recorded daily.
# The calculation formula for the weight loss rate of animals is (see FIG. 3 for the results): Weight loss rate of animals=100%×(BWinitial−BWt)/BWinitial
# wherein, BWt represents the body weight of the animal at each measurement during administration; BWinitial represents the body weight of the animal at the time of grouping administration.
# [2] = tested on: Huh7 tumor-bearing BALB/c nude mice xenografts; test: Growth inhibition of Huh7 xenografts in BALB/c nude mice; assay type: in vivo; conditions: 25 mg/kg IP, bid
# Procedure: On day 0, Huh7 cells were cultured in DMEM medium containing 10% of fetal bovine serum, 100 U of penicillin, and 100 μg/mL of streptomycin. And cultured in an incubator of 37° C., 5% CO2.
# Each mouse was inoculated subcutaneously in the right axilla with 150 μL of cell suspension (5.0×10^6 cells/mouse) under sterile conditions. On day 12 after inoculation, when the tumor grew to a volume of 200-300 mm^3, mice with similar tumor volume and good shape were selected (the shape was as single spherical as possible, no irregular shape or multiple tumors gathered together) and divided into 5 groups, each group had 9 mice.
# as §1
# The formation of tumor in the inoculated part of each group of animals was observed. The long diameter (Y) and short diameter (X) of the tumor nodules were measured twice a week using vernier calipers and calculated according to the following formula: Volume of tumor nodules(V):V=(X^2Y)/2.
# Evaluation index of antitumor activity: tumor growth inhibition rate TGI (%), relative tumor proliferation rate T/C (%).
# The relative tumor volume (RTV) is calculated as: RTV=100×TVt/TVinitial
# The calculation formula for the relative tumor proliferation rate (% T/C) is: % T/C=100%×(RTVT/RTVC)
smiles,measurement,setting,value
"C=CC(=O)Nc1cc(N2CCN(CC)C3(CC3)C2)ccc1Nc1cc(N(C)C(=O)Nc2c(Cl)c(OC)cc(OC)c2Cl)ncn1 [Example 5, N-(2-((6-(3-(2,6-Dichloro-3,5-dimethoxyphenyl)-1-methylureido)pyrimidin-4-yl)amino)-5-(4-ethyl-4,7-diazaspiro[2.5]octan-7-yl)phenyl)acrylamide]",body weight change,[1],no significant body weight change
C=CC(=O)Nc1cc(N2CCN(CC)CC2)ccc1Nc1cc(N(C)C(=O)Nc2c(Cl)c(OC)cc(OC)c2Cl)ncn1 [Example 108 of WO2015057938],Tumor growth inhibition rate (TGI %),[2]; Day 16 after inoculation,34%
same,Tumor growth inhibition rate (TGI %),[2]; Day 20 after inoculation,21%
same,Tumor growth inhibition rate (TGI %),[2]; Day 23 after inoculation,21%
same,Tumor growth inhibition rate (TGI %),[2]; Day 27 after inoculation,29%
same,Tumor growth inhibition rate (TGI %),[2]; Day 30 after inoculation,24%
same,Tumor growth inhibition rate (TGI %),[2]; Day 34 after inoculation,16%
same,Tumor weight inhibition rate (%),[2]; end of the experiment,2.2%

# Reference: patent US11001572B2, “Pyrimidine derivative, method for preparing same and use thereof in medicine” (Zhejiang Hisun Pharmaceutical Co., Ltd., priority 2016, dated 2021)
